Measurements published in patent US6930185B2, “Melanin-concentrating hormone antagonist” (Takeda Chemical Industries, Ltd., priority 2000, dated 2005).

Tests used:
SLC-1 = SLC-1 (UniProt Q99705); test: Determination of antagonist activity using GTPγS binding assay; format: biochemical, human/rat; conditions: inhibition of MCH-stimulated [35S]-Guanosine 5′-(γ-thio) triphosphate binding, SLC-1 expressing CHO cell membrane fractions
Protocol: Determination of Antagonist Activity Using GTPYS Binding Assay of Test Compound
Membrane fraction was prepared by the following method, using the human SLC-1 expressing CHO cell clone 57 obtained in Reference Example 1-10, and the rat SLC-1 expressing CHO cell clone 44 obtained in Reference Example 1-4.
The human and rat SLC-1 expressing CHO cells (1×10^8) were scraped in buffer saline phosphate (pH 7.4) to which 5 mM EDTA (ethylenediaminetetraacetic acid) had been added, and centrifuged. 10 ml of homogenized buffer (10 mM NaHCO3, 5 mM EDTA, pH 7.5) was added to the cell pellets, and they were homogenized using a Polytron homogenizer. […]
After this reaction mixture was allowed to react for 1 hour under stirring, it was filtered under vacuum using a glass filter (GF-C), then the filter was washed 3 times with 300 μl of washing solution (50 mM Tris-HCl buffer solution pH 7.5). […] of liquid scintillator was added to the glass filter, and residual radioactivity was determined using a liquid scintillation counter.
The IC50 value of the compound was calculated from the binding inhibition rate (%), based on the definition that the binding inhibition rate (%)=(radioactivity when compound and MCH were added−radioactivity when DMSO solution was added)/(radioactivity when MCH was added−radioactivity when DMSO solution was added)×100.

IC50 (SLC-1): 5 nM
melting point: 230 to 231 °C
SMILES: CN(C)Cc1ccc2cc(NC(=O)c3ccc(-c4ccc(Cl)cc4)cc3)ccc2c1 [Example 1, 4′-Chloro-N-[6-[(N,N-dimethylamino)methyl]-2-naphthyl][1,1′-biphenyl]-4-carboxamide]
